The source of these data is patent publication US8975251B2, “Methods of improving cognitive functions” (Bar-Ilan University, priority 2009, dated 2015).

In assay [1] the test system is PCP-induced reversal learning deficit. Kind of assay: PCP-induced reversal learning task in rats. It is filed as in vivo, rat. The source says: Antipsychotic drugs: BL-1020 (perphenazine 4-aminobutyrate, mesylate salt; BioLineRx Ltd., Israel; administered per os); risperidone (Sigma, UK; administered intra-peritoneally); and perphenazine (Sigma, Israel; administered per os).
GABAA antagonists: picrotoxin (Sigma, UK; administered intra-peritoneally); and bicuculline (Sigma, UK; administered intra-peritoneally).
Female hooded-Lister rats (Charles River, UK) were housed in groups of five under standard laboratory conditions under a 12 hr diurnal cycle. Rats were maintained at approx 85% of free-feeding body weight average (250 grams) for the duration of the study.
Following habituation to the operant chambers, rats were trained to respond for food on an FR1 (Fixed Ratio 1) schedule of reinforcement with active levers active, as described by Abdul-Monim et al. (J. Psychopharmacology 17: 57-65, 2003). When a proper response for food was established the rats were trained to press either the left or right lever (only one of levers was active) for food delivery. The active lever was varied from day to day using a pseudorandom Gellerman schedule, which randomly assigns either the left or right lever as active, thus avoiding generation of a lever bias. Each session lasted 20 minutes and counts were recorded on each lever.
Following completion of the first phase of training (within about two weeks) the rats were trained to respond ter food according to the position of a visual cue (a lit LED). Half of the rats were trained to press the lever under the lit LED in order to receive a food reward. The other half of the rats were trained on the opposite contingency (i.e., to press the lever under the non-lit LED). Each training session began with illumination of the house-light. After three seconds both levers, together with the visual cue, were presented. The cue was presented for one second. […] The levers were then retracted and the house light was extinguished for a three-second time-out period, during which the pellet was consumed (if a correct response had been made). The house-light was then turned on again and the cycle repeated. Following 128 lever presses (which lasted approximately 30 minutes) the training session was terminated.
Each rat had one training session per day. Rats were required to make at least 115 responses on the correct lever (90% correct responding) on at least three consecutive days (which was generally achieved within two weeks). The contingency (visual cue, i.e. LED on or off, relative to active lever) remained constant during this period, though the position of the active lever varied from day to day according to a pseudo-random Gellerman schedule.
Subsequently, rats were trained until they again reached criterion on the opposite contingency (which was generally achieved within two weeks)). Rats achieved criterion at the same rate irrespective of whether they responded to one rule or the other. […]
Following a 7 day drug (PCP)-free period the rats were treated with test agents (antipsychotic drugs and GABAA-receptor antagonists). Sixty minutes later the rats were exposed for five-minutes (“initial phase”) to the same contingency (cue position relative to active lever) as was during the operant training session and their responses (pressing on correct and incorrect levers) were recorded. Following a two-minutes recess the animals were exposed for five-minutes to a reversed contingency (“reversal phase”) during which their responses (pressing on correct and incorrect levers) were recorded. […]

In assay [2] the test system is patients having acute exacerbation of schizophrenia. Kind of assay: Clinical trial, Brief Assessment of Cognition in Schizophrenia (BACS). It is filed as in vivo, human. To be noted: for BACS mean change from baseline at Day 42, Mean (SD): 42 days; for BACS Difference in LS-means vs. Placebo (ANCOVA) / BACS Difference in LS-mean vs. Risperidone (ANCOVA): Day 42; for cognitive functions as compared to the placebo: schizophrenic patients, human clinical trial. As to the method:
The trial was conducted at forty sites located in the USA, Europe and India. For the trial 363 patients were recruited and randomized equally. Drugs (BL-1020, 10 mg/day; BL-1020, 20-30 mg/day; risperidone, 2-8 mg/day and placebo) have been administered to designated patients (double blinded) daily over a period of 42 days.
Key secondary efficacy measures included the Clinical Global Impression of Severity (CGI-S), the Clinical Global Impression of Change (CGI-C) from baseline, and effect on cognition as measured by the Brief Assessment of Cognition in Schizophrenia (BACS). Risperidone at a dose of 2-8 mg was included as a positive control to validate the study results.
Assessments of cognitive functions of treated patients have been performed on day zero (baseline) and on day 42 (end of study), using the test battery designed for use in patients with schizophrenia [Richard Keefe (Ed.), Brief Assessment of Cognition in Schizophrenia (BACS) Version 3.0, Duke University Medical Center, 1999; and Keefe et al., Schizophrenia Research, 68: 283-297, 2004]. The battery consists of brief assessments of processing speed, reasoning and problem solving and verbal and working memory. A composite score is obtained by summing the z-scores of six measures (verbal memory, digit sequencing, token motor task, fluency, symbol coding and Tower of London).

Entries after “also recorded” stand apart in the source; their conditions may differ. Counter-ions that a name gives are not always drawn.

In the case of picrotoxin, the “effect on BL-1020 improvement of PCP-induced reversal learning deficit” value in assay [1] (picrotoxin 0.5 mg/kg co-administered with BL-1020 3 mg/kg, p<0.001) was “negated the BL-1020 effect”. Besides, the “effect on PCP-induced reversal learning deficit (percent correct response)” value (“effect … (percent correct response)” for short) in assay [1] (picrotoxin 0.25, 0.5 and 1 mg/kg intra-peritoneally) was “did not significantly improve”.
As for `Cc1nc2n(c(=O)c1CCN1CCC(c3noc4cc(F)ccc34)CC1)CCCC2` [Risperidone, risperidone, reference compound], the “BACS test mean score at Baseline, Mean (SD)” value (from here on “BACS test mean score … (SD)”) in assay [2] (Risperidone 8 mg/day group, day 0, n = 91) was 13.5 (12.3). Besides, in assay [2] (Risperidone 8 mg/day), the “BACS mean change from baseline at Day 42, Mean (SD)” value (“BACS mean change … (SD)” below) is given as 5.7 (6.2) and the “BACS Difference in LS-means vs. Placebo (ANCOVA)” value worked out at 0.52. The “cognitive functions as compared to the placebo” value in assay [2] is “failed to improve cognitive functions”.
On to `OCCN1CCN(CCCN2c3ccccc3Sc3ccc(Cl)cc32)CC1` [perphenazine], for which the “effect … (percent correct response)” value in assay [1] (perphenazine 2.49 mg/kg per os (equivalent to perphenazine moiety in 3 mg/kg BL-1020)) is reported as “did not significantly improve; also recorded: failed to improve cognitive functions”.
Consider `c1ccc(C2(N3CCCCC3)CCCCC2)cc1` [PCP, phencyclidine hydrochloride], for which, in assay [1] (PCP 2 mg/kg intra-peritoneally twice daily for 7 days, p<0.01), the “percent correct responding animals in the reversal learning task” value is recorded as “significantly reduced”.
As for `NCCCC(=O)OCCN1CCN(CCCN2c3ccccc3Sc3ccc(Cl)cc32)CC1` [BL-1020, 4-amino-butyric acid 2-{4-[3-(2-chloro-phenothiazin-10-yl)-propyl]piperazin-1-yl}-ethyl ester], the “effect … (percent correct response)” value in assay [1] (BL-1020 3 mg/kg per os, 60 min before task, p<0.01, 3 mg/kg) is “significantly improved; also recorded: significant improvement”. Besides, the “BACS test mean score … (SD)” value in assay [2] (BL-1020 10 mg/day group, day 0, n = 90) was 16.7 (15.5). In assay [2] (BL-1020 10 mg/day), the “BACS mean change … (SD)” value is recorded as 5.1 (7.1); the “BACS Difference in LS-mean vs. Risperidone (ANCOVA)” value turned out to be 0.11; the “BACS Difference in LS-means vs. Placebo (ANCOVA)” value was 0.63. Moreover, in assay [2] (BL-1020 30 mg/day group, day 0, n = 89), the “BACS test mean score … (SD)” value is reported as 15.3 (15.5). For the same molecule, in assay [2] (BL-1020 30 mg/day), the “BACS mean change … (SD)” value is given as 8.3 (8.5); the “BACS Difference in LS-mean vs. Risperidone (ANCOVA)” value came to 3.40; the “BACS Difference in LS-means vs. Placebo (ANCOVA)” value turned out to be 3.92. For the same molecule, the BACS score increase in assay [2] (BL-1020 high dose 20-30 mg/day, after 42 days) came to 8.3 points. Further, the “cognitive functions as compared to the placebo” value in assay [2] is listed as “significantly improved”.
